Usually pIC50 stands for the IC50 on a negative log10 scale, so that one unit is a factor of ten. Lower therefore signals a large IC50.

pIC50: −log10 of the molar value.

Assay [1] has as its target FGFR3 (SEQ ID NO: 5, amino acids 449-759) (Homo sapiens (Human), UniProt P22607). The assay can be described thus: LC/MS FGFR3 kobs assay (covalent protein modification). Particulars: 500 nM FGFR3, 3 μM compound. Type of assay: binding. Put shortly: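 Covalent modification of FGFR1 (aa 458-765) or FGFR3 (aa 449-759) followed over time; reactions quenched with 0.4% formic acid and analysed by Q-TOF LC/MS after deconvolution. Percent unmodified protein, normalized to DMSO controls, fit to exponential decay to give kobs; averaged where repeated.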

The target of assay [2] is T1, HEK-293 cells transfected with dox-inducible human wild type FGFR3 (Homo sapiens (Human), UniProt P22607). As to the kind of experiment: FGFR3 pFGFR cell assay (ELISA). Type of assay: cell-based. Particulars: HEK-293 dox-inducible FGFR3, 1 hour compound, 100 ng/ml FGF-acidic. The procedure, abridged: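 Doxycycline-induced (1 μg/ml) HEK-293 cells expressing wild-type human FGFR3, treated 1 h with compound (1:3 series, top final 5 μM), then stimulated 5 min with 100 ng/ml FGF-acidic. Phospho-FGFR3 measured by ELISA (total FGFR3 capture, phosphotyrosine detection, OD 450 nm); IC50 from 4-parameter fit of POC values.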

Assay [3] concerns the target phosphorylated FGFR3 (SEQ ID NO: 5, amino acids 449 to 759) (Homo sapiens (Human), UniProt P22607). As to the kind of experiment: FGFR enzyme binding assay (HTRF tracer displacement), FGFR3. To be noted: 5 nM phosphorylated FGFR3, average of multiple determinations if made. Put shortly: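 Compounds were tested for displacement of a tracer from human FGFR kinase in a time-resolved FRET binding format. After 60 minutes at 22° C, signal was read at two wavelengths and converted to percent of control, normalised between untreated wells and 1 μM reference inhibitor.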
On the technique in general: In TR-FRET formats the signal depends on donor and acceptor labels being close together.

The target of assay [4] is HEK-293 cells transfected with dox-inducible human wild type FGFR1 (Homo sapiens (Human), UniProt P11362). The assay can be described thus: FGFR1 pERK cell assay. Type of assay: cell-based. To be noted: HEK-293 dox-inducible FGFR1, 1 hour compound, 100 ng/ml FGF-acidic; maximum concentration 5 μM. Put shortly:
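In HEK-293 cells with dox-induced human wild-type FGFR1, compounds (1:3 dilutions, top 5 μM final) were applied 1 h at 37°C before 5 min stimulation with 100 ng/ml FGF-acidic. Phospho-ERK1/2 measured by MSD sandwich immunoassay; IC50 from 4-parameter fit of POC versus vehicle and control compound.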

The target of assay [5] is T1, HEK-293 cells transfected with dox-inducible human wild type FGFR3. The assay can be described thus: FGFR3 pERK cell assay. The format is cell-based. To be noted: HEK-293 dox-inducible FGFR3, 1 hour compound, 100 ng/ml FGF-acidic; maximum concentration 5 μM. Put shortly: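 Doxycycline-induced cells preincubated 1 h at 37 °C with compound (1:3 dilutions, top 5 μM final), then stimulated 5 min with 100 ng/ml FGF-acidic. Lysate phospho-ERK1/2 measured by MSD sandwich assay; IC50 at 50 POC from 4-parameter fit, normalised to no-compound and control-compound wells.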

T1 sequence (P22607 23-806): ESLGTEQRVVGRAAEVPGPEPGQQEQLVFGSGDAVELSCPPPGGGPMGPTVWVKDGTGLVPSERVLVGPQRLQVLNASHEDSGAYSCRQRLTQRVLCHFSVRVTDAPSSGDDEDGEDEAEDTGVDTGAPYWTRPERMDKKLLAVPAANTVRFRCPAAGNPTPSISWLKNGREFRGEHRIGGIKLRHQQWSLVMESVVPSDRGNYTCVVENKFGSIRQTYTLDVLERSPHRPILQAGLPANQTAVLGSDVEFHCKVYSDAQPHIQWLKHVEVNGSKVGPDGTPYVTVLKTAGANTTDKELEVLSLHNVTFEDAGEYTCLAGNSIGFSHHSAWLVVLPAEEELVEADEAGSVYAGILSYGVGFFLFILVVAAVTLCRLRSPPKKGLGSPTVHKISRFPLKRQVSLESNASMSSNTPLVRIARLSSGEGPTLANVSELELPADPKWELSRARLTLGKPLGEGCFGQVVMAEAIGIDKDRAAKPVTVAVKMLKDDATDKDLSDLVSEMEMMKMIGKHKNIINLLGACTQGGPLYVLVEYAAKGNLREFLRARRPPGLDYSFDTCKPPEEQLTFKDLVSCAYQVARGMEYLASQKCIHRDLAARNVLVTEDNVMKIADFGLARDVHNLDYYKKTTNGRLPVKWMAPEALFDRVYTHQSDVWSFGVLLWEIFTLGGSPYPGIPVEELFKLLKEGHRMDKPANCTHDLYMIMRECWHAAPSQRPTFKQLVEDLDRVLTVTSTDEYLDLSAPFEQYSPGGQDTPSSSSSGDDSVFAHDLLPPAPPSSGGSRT
Sequence of FGFR3 (SEQ ID NO: 5, amino acids 449-759) (P22607 449-759): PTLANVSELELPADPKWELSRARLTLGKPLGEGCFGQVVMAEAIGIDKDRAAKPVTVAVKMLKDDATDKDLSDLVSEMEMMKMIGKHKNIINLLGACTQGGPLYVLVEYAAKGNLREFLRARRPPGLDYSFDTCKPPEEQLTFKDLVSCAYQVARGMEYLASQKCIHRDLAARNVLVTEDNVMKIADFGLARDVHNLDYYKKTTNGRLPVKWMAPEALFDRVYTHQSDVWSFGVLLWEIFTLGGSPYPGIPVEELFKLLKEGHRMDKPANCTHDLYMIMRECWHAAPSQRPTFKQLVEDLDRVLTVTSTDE
Sequence of phosphorylated FGFR3 (SEQ ID NO: 5, amino acids 449 to 759) (P22607 449-759): as above
Sequence of HEK-293 cells transfected with dox-inducible human wild type FGFR1 (P11362 22-822): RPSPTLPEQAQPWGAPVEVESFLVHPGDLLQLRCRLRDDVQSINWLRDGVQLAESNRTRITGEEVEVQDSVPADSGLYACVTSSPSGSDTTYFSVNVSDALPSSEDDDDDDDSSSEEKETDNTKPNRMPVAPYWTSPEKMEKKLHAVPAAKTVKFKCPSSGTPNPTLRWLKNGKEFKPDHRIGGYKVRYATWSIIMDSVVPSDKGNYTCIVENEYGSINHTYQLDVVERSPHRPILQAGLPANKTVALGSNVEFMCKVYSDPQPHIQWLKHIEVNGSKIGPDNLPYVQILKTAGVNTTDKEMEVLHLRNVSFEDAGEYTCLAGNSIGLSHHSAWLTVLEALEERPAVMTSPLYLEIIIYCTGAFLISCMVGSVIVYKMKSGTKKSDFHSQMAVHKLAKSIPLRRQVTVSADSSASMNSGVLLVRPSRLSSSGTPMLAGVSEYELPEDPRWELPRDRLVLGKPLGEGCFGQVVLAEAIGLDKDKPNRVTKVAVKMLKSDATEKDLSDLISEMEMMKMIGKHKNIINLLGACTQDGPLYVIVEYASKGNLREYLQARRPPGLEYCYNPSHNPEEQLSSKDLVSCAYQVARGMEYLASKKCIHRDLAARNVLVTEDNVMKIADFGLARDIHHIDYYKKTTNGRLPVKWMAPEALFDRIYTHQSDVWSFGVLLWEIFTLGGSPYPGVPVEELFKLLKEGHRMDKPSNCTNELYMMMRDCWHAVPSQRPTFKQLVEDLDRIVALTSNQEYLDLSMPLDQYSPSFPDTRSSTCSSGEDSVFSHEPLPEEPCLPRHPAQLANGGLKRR

For the compound `C=CC(=O)N1CCC(C#N)(C(=O)N2CCC(n3cc(-c4cc(OC)c5c(C#N)cnn5c4)cn3)CC2)CC1` [Example 14, 6-(1-(1-(1-acryloyl-4-cyanopiperidine-4-carbonyl)piperidin-4-yl)-1H-pyrazol-4-yl)-4-methoxypyrazolo[1,5-a]pyridine-3-carbonitrile], the “FGFR3 Enz kobs” value in assay [1] was 0.00997 min⁻¹. The pIC50 in assay [2] is 7.60; in assay [3] it was 8.15.
The corresponding values for `C=CC(=O)N1CCC(C(=O)N2CCC(n3cc(-c4cc(OC)c5c(C#N)cnn5c4)cn3)CC2)C(F)(F)C1` (stereo not shown) [Example 15, 6-(1-(1-(1-acryloyl-3,3-difluoropiperidine-4-carbonyl)piperidin-4-yl)-1H-pyrazol-4-yl)-4-methoxypyrazolo[1,5-a]pyridine-3-carbonitrile] are 0.01716 min⁻¹, 8.00 and 8.70.
The corresponding values for `C=CC(=O)N1CC2(CCC(C(=O)N3CCC(n4cc(-c5cc(OC)c6c(C#N)cnn6c5)cn4)CC3)CC2)C1` [Example 21, 6-(1-(1-(2-acryloyl-2-azaspiro[3.5]nonane-7-carbonyl)piperidin-4-yl)-1H-pyrazol-4-yl)-4-methoxypyrazolo[1,5-a]pyridine-3-carbonitrile] are 0.00661 min⁻¹, 7.40 and 8.30.
As for `C=CC(=O)Nc1cccc(C(=O)N2CCC(n3cc(-c4cc(OC)c5c(C#N)cnn5c4)cn3)CC2)c1` [Example 22, N-(3-(4-(4-(3-cyano-4-methoxypyrazolo[1,5-a]pyridin-6-yl)-1H-pyrazol-1-yl)piperidine-1-carbonyl)phenyl)acrylamide], the “FGFR3 Enz kobs” value in assay [1] was found to be 0.0108 min⁻¹. Also, the pIC50 in assay [2] is 7.06; in assay [3] it was 8.10.
The corresponding values for `C=CC(=O)Nc1ccc(C(=O)N2CCC[C@@H](n3cc(-c4cc(OC)c5c(C#N)cnn5c4)cn3)C2)cc1` [Example 23, (R)-N-(4-(3-(4-(3-cyano-4-methoxypyrazolo[1,5-a]pyridin-6-yl)-1H-pyrazol-1-yl)piperidine-1-carbonyl)phenyl)acrylamide] are 0.01176 min⁻¹, 7.05 and 7.27.
The corresponding values for `C=CC(=O)Nc1cccc(C(=O)N2CCC[C@@H](n3cc(-c4cc(OC)c5c(C#N)cnn5c4)cn3)C2)c1` [Example 24, (R)-N-(3-(3-(4-(3-cyano-4-methoxypyrazolo[1,5-a]pyridin-6-yl)-1H-pyrazol-1-yl)piperidine-1-carbonyl)phenyl)acrylamide] are 0.00708 min⁻¹, 6.36 and 7.16.
For `C=CC(=O)Nc1ccccc1C(=O)N1CCC[C@@H](n2cc(-c3cc(OC)c4c(C#N)cnn4c3)cn2)C1` [Example 25, (R)-N-(2-(3-(4-(3-cyano-4-methoxypyrazolo[1,5-a]pyridin-6-yl)-1H-pyrazol-1-yl)piperidine-1-carbonyl)phenyl)acrylamide], in that order: 0.00672 min⁻¹, 7.08 and 7.28.
On to `C=CC(=O)N1CC[C@H](C(=O)N2CCC(n3cc(-c4cc(OC)c5c(C#N)cnn5c4)cn3)CC2)C1` [Example 28, (S)-6-(1-(1-(1-acryloylpyrrolidine-3-carbonyl)piperidin-4-yl)-1H-pyrazol-4-yl)-4-methoxypyrazolo[1,5-a]pyridine-3-carbonitrile], for which the “FGFR3 Enz kobs” value in assay [1] stood at 0.00294 min⁻¹. Also, the pIC50 is 6.55 in assay [2] and 7.77 in assay [3].
For `C=CC(=O)N1CC[C@@H](C(=O)N2CCC(n3cc(-c4cc(OC)c5c(C#N)cnn5c4)cn3)CC2)C1` [Example 29, (R)-6-(1-(1-(1-acryloylpyrrolidine-3-carbonyl)piperidin-4-yl)-1H-pyrazol-4-yl)-4-methoxypyrazolo[1,5-a]pyridine-3-carbonitrile], in that order: 0.00297 min⁻¹, 6.44 and 7.37.
The corresponding values for `C=CC(=O)N1CCC(F)(C(=O)N2CCC(n3cc(-c4cc(OC)c5c(C#N)cnn5c4)cn3)CC2)C1` (stereo not shown) [Example 30, 6-(1-(1-(1-acryloyl-3-fluoropyrrolidine-3-carbonyl)piperidin-4-yl)-1H-pyrazol-4-yl)-4-methoxypyrazolo[1,5-a]pyridine-3-carbonitrile] are 0.01214 min⁻¹, 7.64 and 8.30.
The corresponding values for `C=CC(=O)N1CC(C)(C(=O)N2CCC(n3cc(-c4cc(OC)c5c(C#N)cnn5c4)cn3)CC2)C1` [Example 38, 6-(1-(1-(1-acryloyl-3-methylazetidine-3-carbonyl)piperidin-4-yl)-1H-pyrazol-4-yl)-4-methoxypyrazolo[1,5-a]pyridine-3-carbonitrile] are 0.01168 min⁻¹, 8.05 and 8.70.
For `C=CC(=O)N1CC(CC)(C(=O)N2CCC(n3cc(-c4cc(OC)c5c(C#N)cnn5c4)cn3)CC2)C1` [Example 40, 6-(1-(1-(1-acryloyl-3-ethylazetidine-3-carbonyl)piperidin-4-yl)-1H-pyrazol-4-yl)-4-methoxypyrazolo[1,5-a]pyridine-3-carbonitrile], the “FGFR3 Enz kobs” value in assay [1] is 0.01133 min⁻¹. Further, the pIC50 in assay [2] was 7.80; in assay [3], 8.30.
For `C=CC(=O)Nc1cccc(C(=O)N2CC[C@@H](n3cc(-c4cc(OC)c5c(C#N)cnn5c4)cn3)C2)c1` [Example 56, (R)-N-(3-(3-(4-(3-cyano-4-methoxypyrazolo[1,5-a]pyridin-6-yl)-1H-pyrazol-1-yl)pyrrolidine-1-carbonyl)phenyl)acrylamide], in that order: 0.01264 min⁻¹, 6.74 and 7.74.
For `C=CC(=O)N1CC(C(=O)N2CC[C@@H](n3cc(-c4cc(OC)c5c(C#N)cnn5c4)cn3)C2)C1` [Example 59, (R)-6-(1-(1-(1-acryloylazetidine-3-carbonyl)pyrrolidin-3-yl)-1H-pyrazol-4-yl)-4-methoxypyrazolo[1,5-a]pyridine-3-carbonitrile], in that order: 0.00665 min⁻¹, 6.18 and 7.80.
As for `C=CC(=O)Nc1ccc(C(=O)N2CC[C@H](n3cc(-c4cc(OC)c5c(C#N)cnn5c4)cn3)C2)cc1` [Example 66, (S)-N-(4-(3-(4-(3-cyano-4-methoxypyrazolo[1,5-a]pyridin-6-yl)-1H-pyrazol-1-yl)pyrrolidine-1-carbonyl)phenyl)acrylamide], in assay [1], the “FGFR3 Enz kobs” value was determined as 0.0223 min⁻¹. Also, the pIC50 in assay [2] was 7.09; in assay [3], 8.00.
For `C=CC(=O)Nc1ccc(C(=O)N2CC[C@H](n3cc(-c4cc(OC)c5c(C#N)cnn5c4)cn3)C2)c(C)c1` [Example 68, (S)-N-(4-(3-(4-(3-cyano-4-methoxypyrazolo[1,5-a]pyridin-6-yl)-1H-pyrazol-1-yl)pyrrolidine-1-carbonyl)-3-methylphenyl)acrylamide], in that order: 0.0095 min⁻¹, 6.73 and 7.89.
On to `C=CC(=O)N1CC(CN2CC(n3ncc(-c4cc(OC)c5c(C#N)cnn5c4)c3C)C2)C1` [Example 92], for which the values for the pIC50 in assay [4], in assay [3] and in assay [5] were 5.60, 7.31 and 6.69, respectively. Moreover, the “FGFR3 Enz kobs” value in assay [1] turned out to be 0.00836 min⁻¹.
The corresponding values for `C=CC(=O)N1CC(C)(CN2CC(n3ncc(-c4cc(OC)c5c(C#N)cnn5c4)c3C)C2)C1` [Example 93, 6-(1-(1-((1-acryloyl-3-methylazetidin-3-yl)methyl)azetidin-3-yl)-5-methyl-1H-pyrazol-4-yl)-4-methoxypyrazolo[1,5-a]pyridine-3-carbonitrile] are 5.72, 7.40, 6.76 and 0.00896 min⁻¹.
With `C=CC(=O)Nc1ccc(C(=O)N2CCC(n3cc(-c4cc(OC)c5c(C#N)cnn5c4)cn3)CC2)cc1` [Example 177, N-(4-(4-(4-(3-cyano-4-methoxypyrazolo[1,5-a]pyridin-6-yl)-1H-pyrazol-1-yl)piperidine-1-carbonyl)phenyl)acrylamide], the “FGFR3 Enz kobs” value in assay [1] stood at 0.01958 min⁻¹. The compound also gave a pIC50 in assay [2] of 7.24.

The record behind these values is US12180207B2 (ARRAY BIOPHARMA INC., priority 2018, dated 2024).
